From patent publication US6500828B1, “Triazolo-pyridazine derivatives as ligands for gaba receptors” (Merck Sharp & Dohme Ltd., priority 1999, dated 2002) come the findings set out here.

Structures are written as SMILES.

`CCn1ncnc1COc1nn2c(-c3c(F)cccc3F)nnc2cc1C(C)(C)C` [Example 3, 3-(2,6-Difluorophenyl)-7-(1,1-dimethylethyl)-6-(2-ethyl-2H-1,2,4-triazol-3-ylmethoxy)-1,2,4-triazolo[4,3-b]pyridazine] registered a melting point of 182 °C.
